# Laboratory results reported in patent US12472226B2, “Cell-permeable peptide” (priority 2019, dated 2025).
# Non-standard residues stand in square brackets, D forms with d. No end group written: not given here. *: point of attachment. FITC = O=C1OC2(c3ccc(O)cc3Oc3cc(O)ccc32)c2ccc(NC(=S)*)cc21; Ahx = NCCCCCC(=O)O
# What was measured:
# [1] = system: cytoplasm and nuclear protein of HT-1080 cells; assay: Analytical test of cytoplasm and nuclear protein bound by Example 2 (immunoprecipitation, shotgun analysis); assay type: binding, human; details: 50 μg/mL, 5 days
# Method: The HT-1080 cells (20 million cells) were cultured in 4 mL of serum-supplemented medium (α-MEM+10% FBS) to be 50 μg/mL at the final concentration of Example 2 for 5 days at 37° C. and 5% CO2 in the cell incubator. The cells were washed with PBS and collected. The protein was individually harvested from the cytoplasm and the nucleus using NE-PER Nuclear and Cytoplasmic Extraction Reagents (PIERCE). 80 μL of A/G agarose was added to 1 mg of each protein from the cytoplasm and the nucleus and stirred at 4° C. for 1 hour, the samples were pretreated. 10 μg of IgG Fraction Monoclonal Mouse Anti-Fluorescein (FITC) (Jackson ImmunoResearch) was added to the pretreated solution (1 mg/600 μL) and shaken at 4° C. overnight. Subsequently, 20 μL of A/G agarose was added to the mixtures and shaken at 4° C. for 2 hours. After the mixtures were washed three times with a wash buffer, 50 μL of elution buffer (Thermo Fisher Scientific) was added to the A/G agarose. […]
# Proteins were identified from the cytoplasm or nucleus and listed with the accession number, protein name, identified number of detected peptides, identified number of unique peptides, confidence score and amount of cytoplasmic protein or nuclear protein(fmol), except for the antibodies used in immunoprecipitation and Example 2 from the detected proteins.
# [2] = system: HT-1080 cells tumor; assay: Growth-inhibition and apoptosis of cancer cells in tumor-bearing mice; assay type: in vivo, BALB/c nude mouse; details: 10 mg/kg intraperitoneally every 3 days
# Method: HT-1080 cells (1×10^7 cells/200 μL) were subcutaneously implanted into the back of 5 week-old BALB/c nude mouse (CHARLES RIVER LABORATORIES JAPAN, INC.). A tumor after the implantation was confirmed to reach 30 to 60 mm^3, and then they were subjected to the following tests.
# Example 2 was dissolved in the sterile water and adjusted to be 200 μg/200 μL by the addition of 2-time concentrated α-MEM (not containing glutamine or an antibiotic). It was intraperitoneally administered to tumor-bearing mice at 10 mg/kg every 3 days. In the control administration group, 200 μL of 1-time concentrated α-MEM was intraperitoneally administered to tumor-bearing mice every 3 days. The mice were weighed on DRETEC weighing scale (DRETEC CO., Ltd., Japan) and the tumor size (estimation volume (shortest diameter×longer diameter×height×pi/6 mm^3)) was measured with a vernier caliper (maximum: 150 mm, minimum: 0.05 mm) (MITUTOYO, Japan) every 3 days.
# FIG. 6 is a graph illustrating the transitions of tumor size in the Example 2 and control administration group (N=6). The vertical axis represents the average value of tumor size±standard deviation (SD), and the horizontal axis represents the days after administration. […] In the control administration group, the tumor size on day 24 was more than 1,500 mm^3. On the other hand, the effect of suppressing tumor growth was confirmed as the tumor size was about 600 mm^3 in the Example 2 administration.
# [3] = molecular target: T1, CD13 (Homo sapiens, UniProt P15144); assay: Analytical test of binding protein by immunoprecipitation; details: HT-1080 cells, 80 μg/400 μL, 4° C., 2 hours
# T1 construct: endogenous in cells; host or cells: HT-1080 cells
# T1 sequence (P15144 whole entry): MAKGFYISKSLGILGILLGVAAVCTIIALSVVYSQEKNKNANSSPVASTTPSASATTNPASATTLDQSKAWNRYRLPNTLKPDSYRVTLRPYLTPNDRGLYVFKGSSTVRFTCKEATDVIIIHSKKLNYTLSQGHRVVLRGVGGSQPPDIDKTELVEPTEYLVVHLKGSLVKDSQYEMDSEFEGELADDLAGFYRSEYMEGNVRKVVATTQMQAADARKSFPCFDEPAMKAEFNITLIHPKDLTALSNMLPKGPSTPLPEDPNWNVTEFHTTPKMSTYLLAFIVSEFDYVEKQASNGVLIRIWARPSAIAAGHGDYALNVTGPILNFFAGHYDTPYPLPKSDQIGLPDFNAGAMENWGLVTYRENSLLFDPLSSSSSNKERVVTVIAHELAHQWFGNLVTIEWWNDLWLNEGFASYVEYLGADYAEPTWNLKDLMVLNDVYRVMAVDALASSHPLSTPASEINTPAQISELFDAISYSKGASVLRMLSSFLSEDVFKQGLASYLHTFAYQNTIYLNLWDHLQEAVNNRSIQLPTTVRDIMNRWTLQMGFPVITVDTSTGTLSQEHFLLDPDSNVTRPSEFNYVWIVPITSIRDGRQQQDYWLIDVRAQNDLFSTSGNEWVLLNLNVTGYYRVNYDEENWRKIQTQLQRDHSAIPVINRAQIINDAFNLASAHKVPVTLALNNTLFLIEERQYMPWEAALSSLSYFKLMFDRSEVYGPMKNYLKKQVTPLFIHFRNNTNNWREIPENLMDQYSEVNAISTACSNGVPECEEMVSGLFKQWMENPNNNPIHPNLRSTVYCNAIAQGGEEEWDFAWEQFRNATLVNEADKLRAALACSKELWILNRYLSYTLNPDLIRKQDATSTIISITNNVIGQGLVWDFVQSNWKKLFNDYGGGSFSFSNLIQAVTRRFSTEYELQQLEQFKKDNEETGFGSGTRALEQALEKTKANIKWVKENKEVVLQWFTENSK
# Method: Example 2 (80 μg/400 μL) reacted to HT-1080 cells (40 million cells) at 4° C. for 2 hours. The cells were then washed with PBS, and centrifuged. The centrifuged cells were dissolved in 1,000 μL of IP Lysis/Wash buffer (Thermo Fisher Scientific) with Halt Protease & Phosphatase inhibitor Single-Use Cocktail, ETDA-Free (Thermo Fisher Scientific) (10 μL) at 4° C. for 5 minutes. It was centrifuged at 4° C. for 10 minutes and the supernatant was collected. The supernatant was adjusted to be 1 mg in amount of protein and 80 μL of A/G agarose was added to it. The mixture was stirred at 4° C. for 1 hour and then centrifuged for 1 minute. Thus, a pre-treatment solution was obtained. 10 μg of IgG Fraction Monoclonal Mouse Anti-Fluorescein (FITC) (Jackson ImmunoResearch) or 10 μg of Mouse IgG Isotype Control (Thermo Fisher Scientific) was each added to the pre-treatment solution (1 mg/600 μL), and the mixtures were shaken at 4° C. overnight. Subsequently, 20 μL of A/G agarose was added and the mixtures were shaken at 4° C. for 2 hours. The mixtures were washed three times with the wash buffer described above and 20 μL of 2×Non-reducing Lane Marker Sample Buffer (Thermo Fisher Scientific) was added to the A/G agaroses. […]
# The 10% solution used in immunoprecipitation was loaded to the left lane of FIG. 3. […] CD13 was not detected on the right lane, but CD 13 was detected on the center lane.
substance,measurement,setting,value
"Example 2: peptide of SEQ ID NO: 1 labeled with FITC, bound via an Ahx linker at the N-terminus ({FITC}-[Ahx]KDNRGNLLQCVCTGNGRGEWKC; cysteine pairing not given here)",nuclear transfer proved biochemically,[1],transfer to the inside of the nucleus
same,proteins bound (identified from cytoplasm or nucleus),[1],"linker histones H1-3, core histones (H2A, H2B, H3-2 and H4), 22 types of 40S ribosomal proteins and 28 types of 60S ribosomal proteins"
same,growth inhibition of the tumor compared with the control administration group,[2]; between days 12 and 24,significant difference at a level of 1%
same,tumor size,"[2]; day 24, N=6",about 600 mm^3
same,tumor shrinkage,[2]; to the 33th day,tendency to shrink the tumor was confirmed
same,"binding to CD13 (co-immunoprecipitation with anti-FITC, Western blotting)",[3],proved to bind to CD13 on a cell membrane specifically
